The assay concerns the target T1, rat brain farnesyl protein transferase (PFT) (Rattus norvegicus, UniProt Q02293+Q04631).
T1 construct: 40-fold purified rat brain farnesyl protein transferase; from tissue; host or cells: rat brain
The assay can be described thus: PFT inhibitory activity assay (radiolabeled farnesyl pyrophosphate, biotinyl peptide, streptavidin beads). Format: biochemical. The conditions noted are these: 40-fold purified rat brain enzyme; 0.12 μM [3H]FPP, 0.1 μM biotinyl-Ahe-Tyr-Lys-Cys-Val-Ile-Met; 37° C., 30 minutes; read-out: IC50 (μM) against PFT. How it is done: The PFT inhibitory activity of compounds of Formula I was assayed in 30 mM potassium phosphate buffer, pH 7.4, containing 7 mM DTT, 1.2 mM MgCl2, 0.1 mM leupeptin, 0.1 mM pepstatin and 0.2 mM phenylmethylsulfonyl fluoride. Assays were performed in 96 well plates (Wallec) and employed solutions composed of varying concentrations of a compound of Formula I in 100% DMSO. Upon addition of both substrates, radiolabeled farnesyl pyrophosphate ([1-^3 H], specific activity 15--30 Ci/mmol, final concentration 0.12 μM) and (biotinyl)-Ahe-Tyr-Lys-Cys-Val-Ile-Met peptide (final concentration 0.1 μM), the enzyme reaction was started by addition of 40-fold purified rat brain farnesyl protein transferase. After incubation at 37° C. for 30 minutes, the reaction was terminated by diluting the reaction 2.5-fold with a stop buffer containing 1.5M magnesium acetate, 0.2M H3 PO4, 0.5% BSA, and strepavidin beads (Amersham) at a concentration of 1.3 mg/mL. After allowing the plate to settle for 30 minutes at room temperature, radioactivity was quantitated on a microBeta counter (model 1450, Wallec). Compounds of Formula I show IC50 values of 0.5 nM to 80 μM (see data table) in this assay and are thus valuable inhibitors of protein: farnesyl transferase enzyme which may be used in the medical treatment of tissue proliferative diseases, including cancer and restenosis.

As a reminder, the IC50 is the midpoint of a concentration-inhibition curve.

Numbered stars: 1 amine (or outer) side, 2 acyl side, 3 side chain; on linkers, the order of the positions; unused ones are H or OH. Square brackets hold non-standard residues; d marks the D form. Peptide text beside a SMILES is read from it. * marks the point of attachment. Bip = N[C@@H](Cc1ccc(-c2ccccc2)cc1)C(=O)O; His(τ-Me) = Cn1cnc(C[C@H](N)C(=O)O)c1; Hydrocinnamoyl = O=C(CCc1ccccc1)*; 3Pal = N[C@@H](Cc1cccnc1)C(=O)O; NHPhenethyl = c1ccc(CCN*)cc1; Cbz = O=C(OCc1ccccc1)*; CO = O=C([*:1])[*:2]; NHBn = c1ccc(CN*)cc1; Bn = c1ccc(C*)cc1

T1 sequence (Q02293 whole entry, one chain of several): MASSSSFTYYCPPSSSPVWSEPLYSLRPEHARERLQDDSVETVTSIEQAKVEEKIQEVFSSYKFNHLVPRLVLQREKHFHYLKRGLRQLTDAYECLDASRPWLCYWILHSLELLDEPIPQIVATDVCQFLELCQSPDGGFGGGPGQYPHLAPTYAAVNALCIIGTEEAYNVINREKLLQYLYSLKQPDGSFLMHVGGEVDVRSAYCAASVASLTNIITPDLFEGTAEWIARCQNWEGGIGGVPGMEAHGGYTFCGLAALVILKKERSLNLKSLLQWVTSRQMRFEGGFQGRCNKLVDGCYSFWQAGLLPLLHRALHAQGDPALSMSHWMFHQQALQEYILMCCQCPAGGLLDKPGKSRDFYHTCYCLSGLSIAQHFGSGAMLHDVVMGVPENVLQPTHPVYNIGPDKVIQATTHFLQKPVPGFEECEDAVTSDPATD

Consider `CCNC(=O)[C@H](COCc1ccccc1)NC(=O)[C@H](Cc1ccc(OCc2ccccc2)cc1)NC(=O)[C@H](Cc1c[nH]cn1)NC(=O)OCc1ccccc1` [Example 11, N-Ethyl-Nα -[N-[N-[(phenylmethoxy)carbonyl]-L-histidyl]-O-(phenylmethyl)-L-tyrosyl]-O-(phenylmethyl)-L-serinamide] (Cbz-His-Tyr(Bn)-Ser(Bn)-NHEt), for which the IC50 stood at 0.17 µM.
The result for `CCNC(=O)[C@H](COCc1ccccc1)NC(=O)[C@H](Cc1ccc(OCc2ccccc2)cc1)NC(=O)[C@@H](Cc1c[nH]cn1)NC(=O)OCc1ccccc1` [Example 12, N-Ethyl-Nα -[N-[N-[(Phenylmethoxy)carbonyl]-D-histidyl]-O-(phenylmethyl)-L-tyrosyl]-O-(phenylmethyl)-L-serinamide] (Cbz-[dH]-Tyr(Bn)-Ser(Bn)-NHEt) reads 0.028 µM.
The figure for `COC(=O)[C@H](COCc1ccccc1)NC(=O)[C@H](Cc1ccc(OCc2ccccc2)cc1)NC(=O)[C@H](Cc1cn(C)cn1)NC(=O)OCc1ccccc1` [Example 13, N-[N-[1-Methyl-N-[(phenylmethoxy)carbonyl]l-L-histidyl]-O-(phenylmethyl)-L-tyrosyl]-O-(phenylmethyl)-L-serine. methyl ester] (Cbz-[His(τ-Me)]-Tyr(Bn)-Ser(Bn)-OMe) is 0.083 µM; for `COC(=O)[C@H](COCc1ccccc1)NC(=O)[C@H](CCc1ccc(OCc2ccccc2)cc1)NC(=O)[C@@H](Cc1c[nH]cn1)NC(=O)OCc1ccccc1` [Example 15] it is 30 µM; for `COC(=O)[C@H](COCc1ccccc1)NC(=O)[C@H](Cc1ccc(-c2ccccc2)cc1)NC(=O)[C@H](Cc1c[nH]cn1)NC(=O)OCc1ccccc1` [Example 16, N-[4-Phenyl-N-[N-[(phenylmethoxy)carbonyl]-L-histidyl]-L-phenylalanyl]-O-(phenylmethyl)-L-serine, methyl ester] (Cbz-His-[Bip]-Ser(Bn)-OMe) it is 0.6 µM.
The figure for `COC(=O)[C@H](COCc1ccccc1)NC(=O)[C@H](Cc1ccc(OCc2ccccc2)cc1)NC(=O)[C@H](Cc1c[nH]cn1)NC(=O)NCc1ccccc1` [Example 17, N-[O-(Phenylmethyl)-N[N-[[(Phenylmethyl)amino]-carbonyl]-L-histidyl]-L-tyrosyl]-O-(phenylmethyl)-serine, methyl ester] ({NHBn-CO}-His-Tyr(Bn)-Ser(Bn)-OMe) is 0.039 µM; for `COC(=O)[C@H](COCc1ccccc1)NC(=O)[C@H](Cc1ccc(OCc2ccccc2)cc1)NC(=O)[C@H](Cc1c[nH]cn1)NC(=O)CCc1ccccc1` [Example 18, N-[N-[N-(1-Oxo-3-phenylpropyl)-L-histidyl]-O-(phenylmethyl)-L-tyrosyl]-O-(phenylmethyl)-L-serine. methyl ester] (Hydrocinnamoyl-His-Tyr(Bn)-Ser(Bn)-OMe) it is 0.82 µM.
Take `O=C(N[C@@H](Cc1c[nH]cn1)C(=O)N[C@@H](Cc1ccc(OCc2ccccc2)cc1)C(=O)NCCOCc1ccccc1)OCc1ccccc1` [Example 19, Nα -[-N-[(Phenylmethoxy)carbonyl]-L-histidyl]-O-(phenylmethyl)-N-[2-(phenylmethoxy)ethyl]-L-tyrosinamide]: the IC50 was determined as 0.31 µM.
The result for `CN(C(=O)OCc1ccccc1)[C@H](Cc1c[nH]cn1)C(=O)N[C@@H](Cc1ccc(OCc2ccccc2)cc1)C(=O)NCCOCc1ccccc1` [Example 21, Nα -[N-Methyl-N[(phenylmethoxy)carbonyl]-D-histidyl]-N-[2-(phenylmethoxy)ethyl]-O-(phenylmethyl)-L-tyrosinamide] reads 0.31 µM.
The result for `C[C@@](Cc1ccc(OCc2ccccc2)cc1)(NC(=O)[C@@H](Cc1c[nH]cn1)NC(=O)OCc1ccccc1)C(=O)NCCOCc1ccccc1` [Example 22] reads 0.37 µM.
The result for `O=C(N[C@@H](Cc1c[nH]cn1)C(=O)N[C@@H](Cc1ccc(OCc2ccccc2)cc1)C(=O)NCCc1ccccc1)OCc1ccccc1` [Example 23, N-(2-Phenylethyl)-N60-[-N-[(phenylmethoxy)carbonyl]-L-histidyl]-O-(phenylmethyl)-L-tyrosinamide] (Cbz-His-Tyr(Bn)-NHPhenethyl) reads 1.9 µM.
As for `COC(=O)[C@H](Cc1cccnc1)NC(=O)[C@H](Cc1ccc(OCc2ccccc2)cc1)NC(=O)[C@H](Cc1c[nH]cn1)NC(=O)OCc1ccccc1` [Example 24, N-[N-[N-[(Phenylmethoxy)carbonyl]-L-histidyl]-O-(phenylmethyl)-L-tyrosyl]-3-(3-pyridinyl)-L-alanine, methyl ester] (Cbz-His-Tyr(Bn)-[3Pal]-OMe), the IC50 stood at 1 µM.
Take `CN(CCOCc1ccccc1)C(=O)[C@H](Cc1ccc(OCc2ccccc2)cc1)NC(=O)[C@H](Cc1c[nH]cn1)NC(=O)OCc1ccccc1` [Example 29, Nα -[N-[(Phenylmethoxy)carbonyl]-L-histidyl]-O-(phenylmethyl)-N-methyl-N-[2-(phenylmethoxy)ethyl]-L-tyrosinamide]: the IC50 was determined as 3 µM.
In the case of “PhCH2 CH2 NHCO--D--His--Tyr(OBn)CONHCH2 CH2 [5 (27)]”, the IC50 worked out at 30 µM.

(Values after patent publication US5830868A, “Substituted DI- and tripeptide inhibitors of protein: farnesyl transferase” (Warner-Lambert Company, priority 1996, dated 1998).)
